Patent US20240034992A1, “DOPAMINERGIC NEURONS COMPRISING MUTATIONS AND METHODS OF USE THEREOF” (FUJIFILM Cellular Dynamics, Inc., priority 2021, published 2024)

Experiments:
SNCA DA neurons = experiment: Calcium imaging (Ca oscillation, FDSS/μCELL) of DA neuron spheroids, SNCA; type: cell-based, human; conditions: 10 uM for one week
Method: (§1) For calcium imaging experiments, DA neurons were cultured as spheroids (50,000/well) in the 384 U bottom ULA plates (S-bio plates) and fed with Brainphys complete media (Brainphys basal media+neural supplement A+NSS). […] On day 14 post-plating (7 days post-treatment) cells were loaded with 1× EarlyTOX cardiotoxicity kit and after 2 hours of incubation at 37° C., Ca2+ oscillation captured using FDSS/μCELL instrument for 20 minutes. Waveform software was used for quantification of Ca oscillation and data were analyzed using GraphPad Prism.
(§2) Calcium oscillation traces of day 14 post plated DA neurons were captured using FDSS/μCELL instrument for 20 minutes. […] Calcium transient properties including (FIG. 13B) number of peaks, (FIG. 13C) peak rates per minute and (FIG. 13D) area under the curve/peak (average) were quantified for all wells (repeats) of each cell line using Waveform software.

LRRK2 DA neurons = experiment: Calcium imaging (Ca oscillation, FDSS/μCELL) of DA neuron spheroids, LRRK2; type: cell-based, human
Method: as §1, §2

GCase [1] = biological target: T1, GCase (Homo sapiens, UniProt P04062); experiment: GCase activity assay after compound treatment, SNCA A53T iPSC-derived DA neurons; type: cell-based; conditions: 10 uM for two weeks, day 21 post thaw
T1 construct: endogenous in cells; host or cells: DA neurons differentiated from LRRK2 patient, SNCA A53T engineered or AHN (healthy donor) iPSCs (lysate)
T1 sequence (P04062 40-536): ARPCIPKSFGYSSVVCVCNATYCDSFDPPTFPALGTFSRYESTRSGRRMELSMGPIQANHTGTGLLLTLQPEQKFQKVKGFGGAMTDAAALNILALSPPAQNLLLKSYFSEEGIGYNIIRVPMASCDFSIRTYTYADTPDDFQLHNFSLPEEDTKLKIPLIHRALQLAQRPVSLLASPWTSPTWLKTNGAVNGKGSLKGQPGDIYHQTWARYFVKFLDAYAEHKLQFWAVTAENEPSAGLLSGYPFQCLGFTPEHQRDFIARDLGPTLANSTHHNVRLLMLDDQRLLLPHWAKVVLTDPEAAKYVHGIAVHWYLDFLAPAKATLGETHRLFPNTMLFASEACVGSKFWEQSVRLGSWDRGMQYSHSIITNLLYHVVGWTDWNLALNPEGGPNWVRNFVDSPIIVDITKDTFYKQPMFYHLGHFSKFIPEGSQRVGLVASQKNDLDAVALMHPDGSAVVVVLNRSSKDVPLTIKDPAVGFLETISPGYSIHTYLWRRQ
Method: (§3) The cells were harvested, lysed and centrifuged at 20,000×g for 20 min at 4° C. […] Recombinant human Glucosylceramidase/GBA (rhGBA) (R&D, 7410-GHB-020) was used as a positive control. Samples were incubated for 40 minutes at 37° C. and reaction stopped by adding equivolume 1M glycine, pH 12.5. 100 μl of reactions were loaded into white 96-well plates (Nunc, #136101) and fluorescence (ex=355 nm, em=460, 0.1 s) signal were measured in the CLARIOstar plate reader (Molecular Devices). Relative fluorescent units (RFUs) from non CBE-treated lysates were calculated by subtracting the signal from the corresponding CBE-treated lysates. […] DA neurons were cultured at high density (200,000/well) in the 96 well plates. Gcase activity was measured from DA neurons derived from GBA, LRRK2 and AHN iPSCs after compound treatment. […] Total protein in the lysate was quantified using Pierce BCA Protein Assay Kit (ThermoFisher). […] Single compounds were tested both for acute exposure (3 days) and chronic exposure (two weeks).

AHN DA neurons = experiment: Calcium imaging (Ca oscillation, FDSS/μCELL) of DA neuron spheroids, AHN; type: cell-based, human; conditions: 10 uM for one week
Method: as §1, §2

GCase [2] = biological target: T1, GCase; experiment: GCase activity assay after compound treatment, AHN iPSC-derived DA neurons; type: cell-based; conditions: 10 uM for two weeks, day 21 post thaw, from 165052 (DMSO vehicle)
Method: as §3

GCase [3] = biological target: T1, GCase; experiment: GCase activity assay after compound treatment, LRRK2 (G2019S) iPSC-derived DA neurons; type: cell-based; conditions: 10 uM for two weeks, day 21 post thaw
Method: as §3

GCase [4] = experiment: GCase activity assay after compound treatment, GBA (N370S) iPSC-derived DA neurons; type: cell-based, human; conditions: for GCase activity (mean±SD): chronic treatment (two weeks) 10 uM, DMSO=90302±3986
Method: The cells were harvested, lysed and centrifuged at 20,000×g for 20 min at 4° C. […] Recombinant human Glucosylceramidase/GBA (rhGBA) (R&D, 7410-GHB-020) was used as a positive control. Samples were incubated for 40 minutes at 37° C. and reaction stopped by adding equivolume 1M glycine, pH 12.5. 100 μl of reactions were loaded into white 96-well plates (Nunc, #136101) and fluorescence (ex=355 nm, em=460, 0.1 s) signal were measured in the CLARIOstar plate reader ([…]). Relative fluorescent units (RFUs) from non CBE-treated lysates were calculated by subtracting the signal from the corresponding CBE-treated lysates. […] DA neurons were cultured at high density (200,000/well) in the 96 well plates. Gcase activity was measured from DA neurons derived from GBA, LRRK2 and AHN iPSCs after compound treatment. […] Total protein in the lysate was quantified using Pierce BCA Protein Assay Kit (ThermoFisher). GCase activity can be used as a read out for compound screening with disease neurons where AHN serve as a control and compounds that could rescue the GCase activity would be considered a positive hit. […] Single compounds were tested both for acute exposure (3 days) and chronic exposure (two weeks).

Structure (SMILES): Nc1c(Br)cc(Br)cc1CN[C@H]1CC[C@H](O)CC1 [Ambroxol]
- effect on Ca oscillation compared to the untreated AHN DA neurons (SNCA DA neurons; SNCA DA neurons): caused hyperexcitability
- number of peaks (mean±SD) (SNCA DA neurons; SNCA, day 14 post plating, 20 minutes, untreated 24.5±5.3): 33.8±1.5
- Peak rate (mean±SD) (SNCA DA neurons; SNCA, day 14 post plating, untreated 1.26±0.3): 1.61±0.12 peaks per minute
- Peak rate (mean±SD) (LRRK2 DA neurons; LRRK2, 10 uM for one week, day 14 post plating, untreated 1.52±0.16): 1.89±0.18 peaks per minute
- effect on Ca oscillation compared to the untreated AHN DA neurons (LRRK2 DA neurons; LRRK2 DA neurons, 10 uM for one week): caused hyperexcitability
- increase in Gcase activity (GCase [1]): 14%
- effect on Ca oscillation compared to the untreated AHN DA neurons (AHN DA neurons; AHN DA neurons): caused hyperexcitability
- number of peaks (mean±SD) (AHN DA neurons; AHN, day 14 post plating, 20 minutes, untreated 21.55±3): 33.75±7.14
- Peak rate (mean±SD) (AHN DA neurons; AHN, day 14 post plating, untreated 1.12±0.16): 1.74±0.32 peaks per minute
- Gcase activity (Mean) (GCase [2]): 171669
- increase in Gcase activity (GCase [3]): 18%
- increase in Gcase activity (GCase [4]; GBA neurons, 10 uM for two weeks, day 21 post thaw): 12%
- increase in Gcase activity (GCase [4]; combinatorial screen, GBA cells, chronic treatment 10 uM, compared to DMSO): 48%
- GCase activity (mean±SD) (GCase [4]; combinatorial screen, GBA cells): highest GCase activity
- GCase activity (mean±SD) (GCase [4]; combinatorial screen, GBA cells, listed as ABX): 133659±10542
